# Values of other authors, collected in patent US20190151262A1, “USE OF N-ACETYLCYSTEINE AMIDE FOR DECREASING INTRACRANIAL PRESSURE” (priority 2013, published 2019).
# System: intra-cranial pressure
# Settings: previously tried anti-oxidant; Thomale et al. Intensive Care Med. 32:149-155 (2006)
smiles,measurement,value
"CC(=O)N[C@@H](CS)C(=O)O [NAC, n-acetylcysteine]",decrease of intra-cranial pressure,no success
